Experiments:
HeLa cells = HeLa cells ectopically expressing RIP3 (immunoblot, MTT); format: cell-based, human
Description: HEK293T, HT-29, H2009, L929, HeLa, and MEF cells were grown in Dulbecco’s Modified Eagle’s Medium (DMEM) supplemented with 10% fetal bovine serum (FBS). RAW264.7 cells were grown in Roswell Park Memorial Institute (RPMI) 1640 media supplemented with 10% FBS. To generate cell lines stably expressing the RIP3 construct, HeLa and H2009 cells were infected with pLX303-hRIP3 lentivirus.
Cells were pretreated with DAB or HS-1371 for 2 h and then treated with TSZ (6 h for immunoblotting, 24 h for cell death assay). Cell lysates were analyzed by immunoblotting (left bottom panel), and cell viability was analyzed by MTT assay (right panel). The results are presented as means ± SEM. *P < 0.05, **P < 0.01, ***P < 0.001. c, d HS-1371 had the same effect on mouse cells. L929 (mouse sarcoma, c) and MEF (mouse embryonic fibroblast, d) cells were pretreated with inhibitors and then necroptosis was induced by TNF. Cell lysates were analyzed by immunoblotting (upper panel), and cell viability was analyzed by MTT assay (bottom panel). The results are presented as means ± SEM. *P < 0.05, **P < 0.01, ***P < 0.001

RIP3 = RIP3 (Homo sapiens, UniProt Q9Y572); assay: TNF (TSZ)-induced RIP3 and MLKL phosphorylation in HT-29 cells (immunoblot); format: cell-based; set-up: RIP3-expressing HT-29 cells; endogenous in cells; host or cells: HT-29
Chain of RIP3 (Q9Y572 whole entry): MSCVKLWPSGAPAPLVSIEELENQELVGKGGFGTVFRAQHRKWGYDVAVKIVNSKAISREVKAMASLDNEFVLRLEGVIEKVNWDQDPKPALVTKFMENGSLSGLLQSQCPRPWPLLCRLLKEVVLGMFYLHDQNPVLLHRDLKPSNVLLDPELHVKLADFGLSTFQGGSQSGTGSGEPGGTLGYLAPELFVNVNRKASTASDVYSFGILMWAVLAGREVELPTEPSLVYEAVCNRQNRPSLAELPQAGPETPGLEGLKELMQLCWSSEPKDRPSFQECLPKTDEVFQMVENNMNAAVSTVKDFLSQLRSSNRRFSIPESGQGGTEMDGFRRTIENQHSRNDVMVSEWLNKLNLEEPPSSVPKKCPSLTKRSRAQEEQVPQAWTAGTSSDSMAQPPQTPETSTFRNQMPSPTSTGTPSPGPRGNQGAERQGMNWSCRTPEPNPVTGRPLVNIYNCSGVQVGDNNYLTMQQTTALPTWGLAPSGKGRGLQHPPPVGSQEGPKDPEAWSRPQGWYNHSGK
Description: Cells were rinsed in cold phosphate-buffered saline (PBS) and lysed in M2 buffer containing 20 mM Tris at pH 7, 0.5% NP-40, 250 mM NaCl, 3 mM EDTA, 3 mM EGTA, 2 mM DTT, 0.5 mM PMSF, 20 mM β-glycerol phosphate, 1 mM sodium vanadate, and 1 μg/mL leupeptin. The cell extracts were subjected to western blot analysis. For immunoprecipitation, lysates were mixed and precipitated with antibody and protein A-agarose beads overnight or for 4 h at 4 °C. Bound proteins were removed by boiling in SDS and resolved by SDS-PAGE, and immunoblotting was visualized by enhanced chemiluminescence (ECL, Amersham).
Fig. 2 Novel inhibitors can block RIP3 S227 phosphorylation. a Western blotting showing various kinase inhibitor effects on RIP3 S227 auto-phosphorylation. HT-29 cells were treated with four tested kinase inhibitors (1308, 1336, 1338, and 1371, 10 μM) for 9 h. As a control, KK5101 (Trk alpha inhibitor) and HS829 (IKK beta inhibitor) were also treated at a concentration of 10 μM for 9 h. Prototypical necroptosis stimuli (TNF + zVAD + either cycloheximide or SMAC mimetic; hereafter referred to as TCZ or TSZ) were applied for 6 h. […] HT-29 cells were treated with 4 tested kinase inhibitors for 24 h, and cell viability was analyzed by MTT assay or phase-contrast microscopy. […] HT-29 cells were pretreated with necrostatin-1 (Nec-1, 40 μM), dabrafenib (DAB, 10 μM) or necrosulfonamide (NSA, 1 μM) for 2 h and then treated with TSZ for 6 h. […] HT-29 cells were pretreated with four tested kinase inhibitors for 2 h and then treated with TSZ for 6 h. Cell lysates were analyzed by immunoblotting. f HT-29 cells were pretreated with Nec-1 (40 μM), DAB (5 μM) or HS-1371 (5 μM) for 2 h and then treated with TSZ for 4 h. Cell lysates were immunoprecipitated with anti-RIP3 antibody. Immunoprecipitates and total lysates were analyzed by Western blotting
TNFα Smac mimetic and the caspase inhibitor zVAD (hereafter referred to as TSZ) is a classical combination that is used to induce RIP3-mediated necroptotic cell death[10],[32]. We first verified that three established pharmacological inhibitors of necroptosis, necrostatin-1 (Nec-1), necrosulfonamide (NSA), and dabrafenib (DAB) could block TNF-induced necroptosis (Fig. 2d). Of these inhibitors, Nec-1 inhibits RIP1 kinase activity[33],[34], DAB inhibits RIP3 kinase activity, and NSA inhibits MLKL functions downstream of RIP3 phosphorylation. […] Next, we tested whether these four inhibitors would inhibit TNF-induced necroptosis signaling by blocking RIP3 kinase activity. […] The effect of HS-1371 on RIP3 kinase activity was compared with another RIP3 inhibitor, GSK’872[16].

## Cc1ccc(Oc2ccnc3cc(-c4cnn(C5CCNCC5)c4)ccc23)cc1 [HS-1371, 7-(1-(Piperidin-4-yl)-1H-pyrazol-4-yl)-4-(p-tolyloxy)quinoline]
HeLa cells; HeLa with ectopic RIP3, 6 h, dose-dependent
  basal RIP3 phosphorylation: decreased
HeLa cells; HeLa with ectopic RIP3, TSZ 24 h, MTT, dose-dependent
  cell viability after TSZ: gradually increased
HeLa cells; HeLa with ectopic RIP3, pretreated 2 h, TSZ 6 h
  TSZ-induced RIP3 phosphorylation and MLKL phosphorylation: effectively blocked
RIP3; HT-29, 5 μM, pretreated 1 h or applied 1 or 2 h after induction
  RIP3 phosphorylation, pre-treatment and post-treatment: completely inhibited
RIP3; HT-29, post-treatment until approximately 5 h after TSZ
  MLKL phosphorylation, post-treatment after TSZ: partially blocked
RIP3; HT-29, pretreated 1 h or applied 1 or 2 h after induction, low concentrations
  RIP3 phosphorylation, pre-treatment and post-treatment, low concentrations: partial inhibitory effect
RIP3; HT-29, pretreated 2 h, TSZ 6 h
  effect on TNF-induced necroptosis signaling (phosphorylation of RIP3 and MLKL): complete inhibitory effect

Source: PMC6148246, “HS-1371, a novel kinase inhibitor of RIP3-mediated necroptosis” (Experimental & Molecular Medicine, 2018)
